From patent publication US20180243212A1, “TRANSDERMAL FORMULATIONS FOR DELIVERY OF DOXYCYCLINE, AND THEIR USE IN THE TREATMENT OF DOXYCYCLINE-RESPONSIVE DISEASES AND CONDITIONS” (DELIVRA, INC., priority 2015, published 2018)

Assays:
[1] = Quantification of doxycycline in formulations 1-3 by LC-MS/MS (stability); assay type: physicochemical; conditions: over the time period studied (three months) under the storage conditions 5-25° C.
Experimental: 2.0-5.0 mg of doxycycline hyclate, usp (Medisca, CAS 24390-14-5, code 0434-04, lot 59177/D) was weighed into a scintillation vial and the mass was recorded. The recorded mass was then used to calculate the volume of solvent needed to generate a final concentration of 1 mg/mL and that amount of 60:28:12 H2O:CH3CN:MeOH was accurately added to the vial using a pipette. The solution was vortexed for 30 seconds or until the doxycycline hyclate was completely dissolved.
A 50 μg/mL solution of doxycycline hyclate was prepared by adding 50 μL of 1 mg/mL stock solution to 950 μL of methanol/water (50:50) and the resulting solution was vortexed for 10 seconds. […]
5-10 mgs of exemplary formulation 3 to be analyzed was weighed into a scintillation vial in duplicate. The mass was recorded and used to calculate the amount of methanol/water (50:50) to add to make up to 1 mg/mL and this was added. […]
Doxycycline was extracted in methanol:water from cream formulations by sonication, diluted and then quantified using liquid chromatography-triple quadruple mass spectrometry (LC-MS/MS). A calibration curve calculated by the peak area ratio of concentration of an analytical standard of doxycycline to an internal standard was used to calculate the concentrations of unknowns and establish linearity and LLOQ. […]

[2] = compounded from commercial tablets in the vehicles; Papich et al. (2013); cited from earlier work

In the case of Doxycycline, the “degradation of the doxycycline” value [1] is given as less than 10% and the “time over which the concentration of DOX can be assured” value [2] is given as no more than 7 days.
